Here are results for twelve molecules from ChEMBL document CHEMBL1201862, “PubChem BioAssay data set” (2004).

Test systems include UO-31; HOP-92; A549; Malme-3M; SF-295; BT-549; SF-539; SW-620; OVCAR-8; SNB-19; NCI-H460; KM12; HOP-62; OVCAR-4; NCI-H522; HL-60; DU-145; M14; RXF 393; SNB-75.
Assay in all cases: inhibition of tumour cell growth, NCI panel, 48 h

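Test compounds were applied to cells in 96-well plates for 48 hours at 5 doses. GI50: concentration for 50% inhibition of growth.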 Calls of active or inactive are those of the source. Cut-off read from the data, not from the text of the source: active = GI50 up to about 1.1 µM and inactive = higher.

As to `COc1nc(C(Cl)(Cl)Cl)c(Cl)c(O)c1Cl`, the GI50 with UO-31, with HOP-92, with A549, in the test on Malme-3M, in the test with SF-295 and in the test on BT-549 was > 100 µM (inactive) each time. Also, the GI50 in the test on SF-539, in the test with SW-620, with OVCAR-8, in the test on SNB-19, with NCI-H460 and in the test on KM12 was > 100 µM (inactive) in each case. Besides, the GI50 was > 100 µM (inactive) in the test on HOP-62; > 100 µM (inactive) in the test with OVCAR-4; 49.3 µM (inactive) with NCI-H522; > 100 µM (inactive) in the test on HL-60; > 100 µM (inactive) with DU-145.
Consider `CC1=C(/C=C/C(C)=C/C=C/C(C)=C/C=C/C=C(C)/C=C/C=C(C)/C=C/C2=C(C)C(=O)C(O)CC2(C)C)C(C)(C)CC(O)C1=O` (stereo not drawn), for which the GI50 in the test on UO-31, with HOP-92, in the test with A549, in the test with M14, in the test on Malme-3M and in the test with SF-295 was > 100 µM (inactive) throughout. Besides, the GI50 in the test on SF-539, in the test on RXF 393, in the test on SW-620, in the test with OVCAR-8, with SNB-19 and with NCI-H460 was > 100 µM (inactive) in each case. For the same molecule, the GI50 in the test on KM12, in the test on HOP-62, in the test with OVCAR-4, in the test on NCI-H522, with HL-60 and in the test on SNB-75 was > 100 µM (inactive) throughout.
For `Cc1nc2cc(Cl)c(N)cc2[nH]1`, the GI50 in the test with UO-31, in the test on A549, with M14, with Malme-3M, with SF-295 and in the test on BT-549 was > 100 µM (inactive) in each case. Besides, the GI50 in the test on SF-539 is > 10 µM (inactive); in the test on SW-620, > 100 µM (inactive); in the test with OVCAR-8, > 100 µM (inactive); in the test on SNB-19, > 100 µM (inactive); in the test on NCI-H460 it was > 100 µM (inactive); with KM12 it was > 100 µM (inactive). For the same molecule, the GI50 in the test on HOP-62, in the test on NCI-H522, in the test on HL-60, with SNB-75 and in the test on DU-145 was > 100 µM (inactive) throughout.
Regarding `CCOC(=O)/N=c1\ss/c(=N\C(=S)N(C)C)n1-c1ccccc1`, the GI50 with UO-31 is > 10 µM (inactive); in the test with HOP-92, 25.8 µM (inactive); in the test with A549, 1.11 µM (active); with M14 it was > 10 µM (inactive); in the test on Malme-3M it was > 10 µM (inactive); in the test on SF-295 it was 29.7 µM (inactive). Further, the GI50 in the test with SF-539 was 40.7 µM (inactive); in the test on RXF 393, 1.07 µM (active); in the test on SW-620, > 10 µM (inactive); in the test on OVCAR-8 it was > 10 µM (inactive); in the test on SNB-19, 47.2 µM (inactive); in the test on NCI-H460, 2.7 µM (inactive). Also, the GI50 with KM12 was 8.63 µM (inactive); in the test with HOP-62 it was 42.5 µM (inactive); in the test with OVCAR-4, 2.16 µM (inactive); with NCI-H522, 0.235 µM (active); with HL-60, > 10 µM (inactive); in the test with SNB-75, 6.03 µM (inactive).
Regarding `Cc1c2c(n(CCc3ccccc3)c1C)NN=C(C#N)S2(=O)=O`, the GI50 with UO-31, in the test with A549, with M14, in the test with Malme-3M, with BT-549 and in the test with SF-539 was > 100 µM (inactive) each time. For the same molecule, the GI50 in the test on SW-620, in the test on OVCAR-8, in the test with SNB-19, with NCI-H460, with KM12 and in the test with HOP-62 was > 100 µM (inactive) throughout. In addition, the GI50 with OVCAR-4 is > 100 µM (inactive); in the test with NCI-H522, 71.1 µM (inactive); in the test with SNB-75, > 100 µM (inactive); in the test with DU-145, > 100 µM (inactive).
With `CCSC1=N/C(=C\c2ccco2)C(=O)N1`, the GI50 in the test on UO-31 was > 100 µM (inactive); in the test with HOP-92 it was 93.3 µM (inactive); in the test on A549, > 100 µM (inactive); with M14 it was > 100 µM (inactive); in the test with Malme-3M it was > 100 µM (inactive); in the test on SF-295, > 100 µM (inactive). For the same molecule, the GI50 in the test with SW-620 was > 100 µM (inactive); in the test with OVCAR-8, > 100 µM (inactive); in the test with SNB-19, 70.8 µM (inactive); in the test with KM12, > 100 µM (inactive); in the test with HOP-62 it was > 100 µM (inactive); in the test on NCI-H522, > 100 µM (inactive). Moreover, the GI50 in the test on SNB-75 and in the test on DU-145 was > 100 µM (inactive) in each case.
Take `CC(=O)c1nc(C#N)c(N)o1`: the GI50 in the test on UO-31, with HOP-92, in the test on A549, in the test on M14, with Malme-3M and in the test with SF-295 was > 100 µM (inactive) throughout. Besides, the GI50 with SF-539, in the test on RXF 393, with SW-620, with OVCAR-8, with SNB-19 and in the test on NCI-H460 was > 100 µM (inactive) throughout. In addition, the GI50 with KM12, in the test with HOP-62, in the test on OVCAR-4, in the test with NCI-H522, with SNB-75 and with DU-145 was > 100 µM (inactive) each time.
For the molecule `CCO[C@@H]1C2C=CC(C2)[C@H]1[N+](=O)[O-]` (stereo partly drawn), the GI50 in the test on UO-31, in the test with HOP-92, in the test with A549, with M14, with Malme-3M and with SF-295 was > 100 µM (inactive) each time. Moreover, the GI50 with SF-539, with RXF 393, in the test with SW-620, with OVCAR-8, in the test on SNB-19 and with NCI-H460 was > 100 µM (inactive) throughout. Further, the GI50 with KM12 is > 100 µM (inactive); with HOP-62 it was > 100 µM (inactive); in the test with OVCAR-4 it was > 100 µM (inactive); in the test with NCI-H522, 64 µM (inactive); with HL-60, 47.3 µM (inactive); with SNB-75, 64.9 µM (inactive).
As for `N#CCCC1(CCC#N)CCc2ccccc2C1=O`, the GI50 in the test with UO-31, in the test on M14, in the test on Malme-3M, in the test with SF-539, with SW-620 and in the test with OVCAR-8 was > 100 µM (inactive) each time. Besides, the GI50 in the test on SNB-19, in the test on NCI-H460, in the test on KM12, in the test with HOP-62, in the test on OVCAR-4 and in the test on NCI-H522 was > 100 µM (inactive) throughout. The GI50 with HL-60, in the test on SNB-75 and with DU-145 was > 100 µM (inactive) in each case.
As for `CN(Cc1cnc2nc(N)nc(N)c2n1)c1ccc(C(=O)NC(CCS(=O)(=O)O)C(=O)O)cc1` (stereo not drawn), the GI50 is 2.72 µM (inactive) with UO-31; > 100 µM (inactive) in the test on HOP-92; 0.421 µM (active) with A549; 0.682 µM (active) in the test with M14; 0.681 µM (active) with SF-295; > 100 µM (inactive) in the test with BT-549. In addition, the GI50 was 0.824 µM (active) with SF-539; 0.379 µM (active) in the test on SW-620; 21.9 µM (inactive) in the test with OVCAR-8; 7.16 µM (inactive) in the test with SNB-19; 0.409 µM (active) with NCI-H460; 0.661 µM (active) with KM12. Moreover, the GI50 in the test with HOP-62 was 0.783 µM (active); in the test on OVCAR-4, > 100 µM (inactive); in the test with NCI-H522, 0.527 µM (active); in the test on HL-60, < 0.0336 µM (active).
Consider `C[C@@]12CCC(=O)c3coc(c31)C(=O)c1cc3c(cc12)C(=O)C=CC3=O` [HELENAQUINONE], for which the GI50 is 17.2 µM (inactive) in the test on UO-31; 6.93 µM (inactive) in the test on HOP-92; 45.2 µM (inactive) in the test with A549; 14.5 µM (inactive) in the test on M14; 17.3 µM (inactive) in the test on Malme-3M; 16.7 µM (inactive) in the test on SF-295. Further, the GI50 in the test with SF-539 is 17.6 µM (inactive); in the test with RXF 393, 21.2 µM (inactive); with SW-620, 19.1 µM (inactive); in the test on OVCAR-8, 16.3 µM (inactive); in the test with SNB-19, > 100 µM (inactive); in the test on NCI-H460, 26.6 µM (inactive). For the same molecule, the GI50 in the test with KM12 was 24.7 µM (inactive); in the test on HOP-62, > 100 µM (inactive); in the test on OVCAR-4, 18.2 µM (inactive); in the test on NCI-H522 it was 9.2 µM (inactive); with HL-60 it was 2.45 µM (inactive); in the test on SNB-75 it was 20.9 µM (inactive).
As for `COc1ccc(CC(C)N)cc1` (stereo not drawn) [PARA-METHOXYAMPHETAMINE], the GI50 in the test with UO-31, with HOP-92, in the test on A549, with M14, with Malme-3M and in the test with SF-295 was > 100 µM (inactive) each time. For the same molecule, the GI50 in the test on SF-539, with RXF 393, in the test on SW-620, in the test with OVCAR-8, in the test with SNB-19 and in the test with NCI-H460 was > 100 µM (inactive) in each case. The GI50 in the test on KM12, in the test on HOP-62, in the test on OVCAR-4, in the test with NCI-H522, with HL-60 and in the test with SNB-75 was > 100 µM (inactive) throughout.
